# From patent US20140081017A1, “Histone Deacetylase Inhibitors for Enhancing Activity of Antifungal Agents” (METHYLGENE INC., priority 2012, published 2014)
# Like-named read-outs stand apart in the source and are kept apart here.
# Experiments:
# Candida albicans = experiment: Minimal Inhibitory Concentration (MIC) assay, broth microdilution per CLSI; format: cell-based; settings: Candida albicans, read-out: Minimum Inhibitory Concentrations against Yeast Isolates, Candida albicans;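 also: two read times 24 hr and 48 hr of incubation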
# Description: (§1) The in vitro activities of the inventive compounds (compound(s) herein) against fungi and/or yeasts were determined with isolates Candida albicans, Candida glabrata and Candida parapsilosis. The comparator compounds included fluconazole, caspofungin and amphotericin B.
# (§2) The compounds were supplied as a powder, and were dissolved in dimethylsulfoxide (DMSO) the day of assay. Stock solutions were prepared at 10 mg/mL and diluted to a starting stock concentration of 2.56 mg/mL. Amphotericin B was dissolved in DMSO to a stock concentration of 2.56 mg/mL. Fluconazole was dissolved in deionized water to a stock concentration of 2.56 mg/mL. Caspofungin was received as a stock solution of 3.2 mg/mL in DMSO and was diluted to a starting stock concentration of 2.56 mg/mL.
# (§3) The test organisms and reference isolates were streaked for isolation on Sabouraud agar medium (yeasts) or potato dextrose agar (fungi). Colonies were picked by swab from the medium and resuspended in the appropriate broth containing cryoprotectant. The suspensions were aliquoted into cryogenic vials and maintained at −80° C.
# (§4) Prior to testing, the yeast isolates were streaked from the frozen vials onto Sabouraud dextrose agar. The plates were incubated overnight at 35° C. The fungal isolate was grown on potato dextrose agar slants and was incubated for 7-10 days at room temperature.
# (§5) Both yeast and fungal isolates were tested in RPMI medium buffered with 0.165 M MOPS (3-(N-morpholino)propanesulfonic acid). The pH of the medium was adjusted to 7.0 with 1 N NaOH. The medium was sterile filtered using a 0.2 um PES (polyethersulfone) filter and stored at 4° C. until used.
# (§6) The MIC assay method followed the procedure described by the Clinical and Laboratory Standards Institute (CLSI; 1, 2, 3) and employed automated liquid handlers to conduct serial dilutions and liquid transfers. Automated liquid handlers included the Multidrop 384 (Labsystems, Helsinki, Finland), Biomek 2000 and Biomek FX (Beckman Coulter, Fullerton Calif.). The wells in columns 2-12 in standard 96-well microdilution plates (Costar 3795) were filled with 150 ul of 100% DMSO. These would become the ‘mother plates’ from which ‘daughter’ or test plates would be prepared. The compounds (300 uL at 40× the desired top concentration in the test plates) were dispensed into the appropriate well in Column 1 of the mother plates. The Biomek 2000 was used to make serial 1:1 dilutions through Column 11 in the “mother plate”. The wells of Column 12 contained no compounds and were the organism growth control wells.
# (§7) The daughter plates were loaded with 185 uL per well of RPMI described above using the Multidrop 384. The daughter plates were prepared using the Biomek FX which transferred 5 μL of the compound solution from each well of a mother plate to the corresponding well of the daughter plate in a single step.
# (§8) Standardized inoculum of each organism was prepared per CLSI methods. For yeast isolates, colonies were picked from the streak plate and a suspension was prepared in 0.85% saline. For the fungal isolate, 1 mL of 0.85% saline was dispensed onto the potato dextrose agar slant that had been inoculated 7-10 days previously. Using a swab, a suspension of the fungus was made. After a short time to allow the heavy particles to settle out, a small quantity of the supernatant was dispensed into 0.85% saline and the suspension adjusted to equal a 0.5 McFarland turbidity standard. Both yeast and fungal isolates were diluted 1:100 in RPMI and then transferred to compartments of sterile reservoirs divided by length (Beckman Coulter). The Biomek 2000 was used to inoculate the plates. Daughter plates were placed on the Biomek 2000 work surface reversed so that inoculation took place from low to high compound concentration. The Biomek 2000 delivered 10 μL of standardized inoculum into each well. Thus, the wells of the daughter plates ultimately contained 185 uL of RPMI, 5 uL of the compound solution, and 10 uL of inoculum. […]
# Candida glabrata = experiment: as above; format: cell-based; settings: Nakaseomyces glabratus, read-out: Minimum Inhibitory Concentrations against Yeast Isolates, Candida glabrata;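 also: two read times 24 hr and 48 hr of incubation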
# Description: as §1, §2, §3, §4, §5, §6, §7, §8
# Candida parapsilosis = experiment: as above; format: cell-based; settings: Lodderomyces parapsilosis, read-out: Minimum Inhibitory Concentrations against Yeast Isolates, Candida parapsilosis;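 also: two read times 24 hr and 48 hr of incubation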
# Description: as §1, §2, §3, §4, §5, §6, §7, §8
# C. glabrata = experiment: Checkerboard FIC assay in combination with fluconazole (MIC alone and in combination, FICI); format: cell-based, Candida glabrata; settings: for FICI of combination resulting in fluconazole MIC of: 2 ug/mL / FICI of combination resulting in fluconazole MIC of: 4 ug/mL / FICI of combination resulting in fluconazole MIC of: 8 ug/mL: FICI calculated using a fluconazole MIC of 16 μg/mL; for FICI of combination resulting in fluconazole MIC of: 2 ug/mL (value in parenthesis) / FICI of combination resulting in fluconazole MIC of: 4 ug/mL (value in parenthesis) / FICI of combination resulting in fluconazole MIC of: 8 ug/mL (value in parenthesis): FICI using a fluconazole MIC of 128 μg/mL; for MIC: Nakaseomyces glabratus; for Multiple of compound MIC to synergize fluconazole MIC to 2 ug/mL / Multiple of compound MIC to synergize fluconazole MIC to 4 ug/mL / Multiple of compound MIC to synergize fluconazole MIC to 8 ug/mL: concentration in combination as multiple of the compound's MIC alone; for Multiple of compound MIC to synergize fluconazole MIC to 2 ug/mL: fluconazole MIC 2 ug/mL; for Multiple of compound MIC to synergize fluconazole MIC to 4 ug/mL: fluconazole MIC 4 ug/mL; for Multiple of compound MIC to synergize fluconazole MIC to 8 ug/mL: fluconazole MIC 8 ug/mL; for Concentration of Methylgene compound to synergize fluconazole MIC to 2 ug/mL / Concentration of Methylgene compound to synergize fluconazole MIC to 4 ug/mL / Concentration of Methylgene compound to synergize fluconazole MIC to 8 ug/mL: in combination with fluconazole; for Concentration of Methylgene compound to synergize fluconazole MIC to 2 ug/mL: fluconazole MIC lowered to 2 ug/mL; for Concentration of Methylgene compound to synergize fluconazole MIC to 4 ug/mL: fluconazole MIC lowered to 4 ug/mL; for Concentration of Methylgene compound to synergize fluconazole MIC to 8 ug/mL: fluconazole MIC lowered to 8 ug/mL
# Description: The ability of the compounds to synergize with azoles against C. glabrata was evaluated by the checkerboard assay, a common laboratory method used to evaluate synergy, antagonism, and indifference using fractional inhibitory concentrations (FICs) and FIC indices (FICI).
# The test compounds were supplied as a powder and dissolved in dimethylsulfoxide (DMSO) on the day of assay. Stock solutions were prepared at 640 ug/mL. Fluconazole was dissolved in deionized water to a stock concentration of 320 ug/mL. All test articles were in solution under these conditions.
# as §3, §4, §5
# FIC values were determined using a broth microdilution method (CLSI; 1, 3). To prepare the test plates, automated liquid handlers (Multidrop 384, Labsystems, Helsinki, Finland; Biomek 2000 and Biomek FX, Beckman Coulter, Fullerton Calif.) were used to conduct serial dilutions and liquid transfers.
# The wells of standard 96-well microdilution plates (Costar 3795) were filled with 150 uL of DMSO in columns 2-12. Three hundred microliters of each test compound was added to each well in Column 1 of the plates. The Biomek 2000 was used to make eleven 2-fold serial dilutions in each of these “test compound mother” plates. The wells of the “fluconazole mother plates” were filled with 150 uL of sterile water in rows B-H. Row A of these plates was filled with 300 uL of the fluconazole stock solution. Serial 2-fold dilutions were then prepared from top to bottom by hand, using a multichannel pipette in rows B-G. The “daughter plates” were loaded with 180 uL of RPMI using the Multidrop 384. The Biomek FX was used to transfer 5 uL of compound solution from each well of a fluconazole mother plate to the corresponding well in all of the daughter plates in a single step. Then the Biomek FX was used to transfer 5 uL of compound solution from each well of a test compound mother plate to the corresponding well of the corresponding test compound daughter plate (already containing fluconazole at the appropriate concentrations) in a single step. Row H and Column 12 each contained serial dilutions of the test agent and fluconazole alone, respectively, for determination of the MIC.
# Standardized inoculum of each organism was prepared per CLSI methods (CLSI; 1, 3). For yeast isolates, colonies were picked from the primary plate and a suspension was prepared in 0.85% saline to equal a 0.5 McFarland turbidity standard. For the fungal isolate, 1 mL of 0.85% saline was dispensed onto a potato dextrose agar slant onto which the isolate had been inoculated 7-10 days previously. Using a swab, a suspension of the fungus was made. After a short time to allow the heavy particles to settle out, a small quantity of the supernatant was dispensed into 0.85% saline and the suspension was adjusted to equal a 0.5 McFarland turbidity standard. Both yeast and fungal isolates were diluted 1:100 in RPMI and then transferred to compartments of sterile reservoirs divided by length (Beckman Coulter). The Biomek 2000 was used to inoculate the plates. […]
# [1] = 24 hr reading (first value of cell 24 hr/48 hr)
# [2] = 48 hr reading (second value of cell 24 hr/48 hr)
# [3] = MIC of the example compound alone against C. glabrata in the checkerboard assay, approximately 48 hr, read-out: Methylgene MIC
# [4] = test compound alone, C. glabrata, approx. 48 hr at 35° C., read-out: Compound MIC
MIC (Candida albicans; [1]) [µg/mL],MIC (Candida albicans; [2]) [µg/mL],MIC (Candida glabrata; [1]) [µg/mL],MIC (Candida glabrata; [2]) [µg/mL],MIC (Candida parapsilosis; [1]) [µg/mL],MIC (Candida parapsilosis; [2]) [µg/mL],FICI of combination resulting in fluconazole MIC of: 2 ug/mL (C. glabrata; C. glabrata),FICI of combination resulting in fluconazole MIC of: 4 ug/mL (C. glabrata; C. glabrata),FICI of combination resulting in fluconazole MIC of: 8 ug/mL (C. glabrata; C. glabrata),FICI of combination resulting in fluconazole MIC of: 2 ug/mL (value in parenthesis) (C. glabrata; C. glabrata),FICI of combination resulting in fluconazole MIC of: 4 ug/mL (value in parenthesis) (C. glabrata; C. glabrata),FICI of combination resulting in fluconazole MIC of: 8 ug/mL (value in parenthesis) (C. glabrata; C. glabrata),MIC (C. glabrata; [3]) [µg/mL],MIC (C. glabrata; [4]) [µg/mL],Multiple of compound MIC to synergize fluconazole MIC to 2 ug/mL (C. glabrata),Multiple of compound MIC to synergize fluconazole MIC to 4 ug/mL (C. glabrata),Multiple of compound MIC to synergize fluconazole MIC to 8 ug/mL (C. glabrata),Concentration of Methylgene compound to synergize fluconazole MIC to 2 ug/mL (C. glabrata; C. glabrata) [µg/mL],Concentration of Methylgene compound to synergize fluconazole MIC to 4 ug/mL (C. glabrata; C. glabrata) [µg/mL],Concentration of Methylgene compound to synergize fluconazole MIC to 8 ug/mL (C. glabrata; C. glabrata) [µg/mL],SMILES
0.5,0.5,0.25,0.5,> 4,> 4,0.313,0.245,0.370,0.266,0.151,0.183,1,1,(¼x),(⅛x),(⅛x),0.25,0.12,0.12,"Cn1ccc2cc(CCCCc3ccc(CC(=O)NO)cc3)ccc21 [Example 6, N-hydroxy-2-(4-(4-(1-methyl-1H-indol-5-yl)butyl)phenyl) acetamide]"
> 64,> 64,8,> 64,> 64,> 64,> 0.563,> 0.625,> 0.500,> 0.516,> 0.531,> 0.313,> 16,> 16,–,–,–,16,16,8,"CN1CCN(CCS(=O)(=O)Nc2ccc(CCCCc3ccc(CC(=O)NO)cc3)cc2)CC1 [Example 52, N-hydroxy-2-(4-(4-(4-(2-(4-methylpiperazin-1-yl)ethylsulfonamido)phenyl)butyl)phenyl)acetamide]"
1,1,0.5,> 4,1,1,0.625,0.490,0.620,0.516,0.271,0.183,0.5,0.5,(½x),(¼x),(⅛x),0.25,0.12,0.06,"COc1ccc(CCCCc2ccc(CC(=O)NO)cc2)cc1 [Example 9, N-hydroxy-2-(4-(4-(4-methoxyphenyl)butyl)phenyl)acetamide]"
2,4,0.25,0.5,0.5,1,0.303,0.365,0.370,0.256,0.271,0.183,0.5,0.5,(¼x),(¼x),(⅛x),0.12,0.12,0.06,"CC(C(=O)NO)c1ccc(CCCCc2ccccc2)cc1 (centres unmarked) [Example 55, N-hydroxy-2-(4-(4-phenylbutyl)phenyl)propanamide]"
